Data reported in paper PMC12655682, “Screening-Identified Oxazole-4-Carboxamide KB-2777 Exhibits In Vitro Anti-Coronavirus Activity” (Pharmaceutics, 2025).
Entries after “also recorded” stand apart in the source; their conditions may differ.

Assays:
HCoV-OC43 [1] = test: Extracellular viral RNA by RT-qPCR of supernatants, HCoV-OC43/Vero E6; assay type: cell-based, Human coronavirus OC43; settings: Betacoronavirus 1, Vero C1008; HCoV-OC43/Vero E6, 72 h post-infection, n = 3
Description: (§1) At 72 h post-infection, 100–200 μL of culture supernatant was collected. Viral RNA was extracted using the QIAamp Viral RNA Mini Kit (Qiagen, Hilden, Germany)according to the manufacturer’s instructions and quantified by one-step RT-qPCR on a real-time thermocycler.
(§2) EC50 values were determined from concentration–response curves generated by 2-fold serial dilutions, with at least four concentration points per curve. Each measurement was performed in triplicate technical replicates. Unless otherwise indicated, data are presented as mean ± SEM from three independent biological experiments (n = 3).
(§3) For absolute quantification, synthetic DNA (oligonucleotide) standards corresponding to the NL63, OC43, and PEDV amplicons were used. Ten-fold serial dilutions were prepared to generate standard curves. Ct values were interpolated against the curves to obtain gene copies per reaction and converted to genome copies per mL by accounting for extraction and elution volumes and the qPCR input volume.

PEDV = test: Extracellular viral RNA by RT-qPCR of supernatants, PEDV/Vero E6; assay type: cell-based; settings: Porcine epidemic diarrhea virus, Vero C1008; PEDV/Vero E6, 72 h post-infection, n = 3
Description: as §1, §2, §3

HCoV-NL63 [2] = test: Infectious titer (TCID50) of HCoV-NL63 at 48 h; assay type: cell-based, Human coronavirus NL63
Description: HCoV-OC43 (KBPV-VR-8), HCoV-NL63 (KBPV-VR-88), and PEDV DR13 (originally described in [20]) were used. HCoV-NL63 was propagated in LLC-MK2 cells, and HCoV-OC43 and PEDV DR13 were propagated in Vero E6 cells. Virus-containing supernatants were clarified (2000× g, 10 min, 4 °C), aliquoted, and stored at −80 °C. Infectious titers (TCID50/mL) were determined on the corresponding host cell lines by the Spearman–Kärber method with back-titrations included in each experiment.
We sought to confirm whether the antiviral activity observed by RT-qPCR was also present at the level of infectious progeny virus. […] Bars represent mean ± SEM; n = 3 independent experiments (triplicate wells per concentration).

HCoV-NL63 [3] = test: Time-of-addition, CPE-based cell protection (EZ-Cytox), HCoV-NL63/LLC-MK2; set-up: species or system Human coronavirus NL63; settings: HCoV-NL63, 5 µM and 20 µM, 48 h post-infection
Description: For antiviral activity, cells in 96-well plates were infected and treated with test compounds as indicated and incubated for 48–72 h. Cell viability was quantified by WST (EZ-Cytox) at 450 nm on the same reader. Cytoprotective effect was calculated by normalizing to infected DMSO controls and converting to percent protection: % Protection = ((V_drug + virus − V_virus-only)/(V_mock − V_virus-only)) × 100. […]
Unless otherwise specified, infections were carried out at 100 TCID50 per well with 1 h adsorption at 37 °C, and compounds were used at 20 µM. Primary readout was S protein IFA at 48 h; EZ-Cytox and TCID50 at 48 h for the same regimens are provided in Supplementary Data (Figures S14 and S15). […]
Cell protection (%) was calculated relative to the DMSO control. […] (b) Infectious progeny released under the same TOA conditions, quantified as log10(TCID₅₀/mL) from culture supernatants (see Methods). […]
(§4) Figure S15. […] Cell protection (%) was calculated relative to the DMSO control. […]
(§5) Statistics: one-way ANOVA with Dunnett’s multiple comparisons vs DMSO; *P<0.05, **P<0.01, ***P<0.001, ****P<0.0001. (b) Infectious progeny released under the same TOA conditions, quantified as log₁₀(TCID₅₀/mL) from culture supernatants by endpoint dilution on Vero E6 indicator cells (Spearman–Kärber method; see Methods). […]

HCoV-OC43 [4] = test: Time-of-addition, CPE reduction in MRC-5 cells, HCoV-OC43; assay type: cell-based, Human coronavirus OC43; settings: HCoV-OC43, MRC-5 cells, 48 h
Description: For antiviral activity, cells in 96-well plates were infected and treated with test compounds as indicated and incubated for 48–72 h. Cell viability was quantified by WST (EZ-Cytox) at 450 nm on the same reader. Cytoprotective effect was calculated by normalizing to infected DMSO controls and converting to percent protection: % Protection = ((V_drug + virus − V_virus-only)/(V_mock − V_virus-only)) × 100.
For HCoV-OC43, TOA was assessed by CPE reduction in MRC-5 cells and by TCID50 on Vero E6 (no IFA collected).
Figure S14. Time-of-addition (TOA) analysis of KB-2777 against HCoV-NL63 (48 h). (a) CPE-reduction assay. KB-2777 was applied at 20 µM (blue) or 5 µM (red) under the indicated TOA conditions (Full, Pre, Co, Post, DMSO).
Cell protection (%) was calculated relative to the DMSO control. Bars show mean ± SD (n = 3). […] (b) Infectious progeny released under the same TOA conditions, quantified as log10(TCID₅₀/mL) from culture supernatants (see Methods). […]
as §4, §5

[5] = system: IL6, ISG15, IFNB1, NQO1, HMOX1 (HO-1), GCLM, DDIT3 (CHOP), ATF4, XBP1 transcripts; test: Targeted host-response transcript profiling (two-step RT-qPCR) in MRC-5 cells; assay type: cell-based, human; settings: n = 3
Description: Total RNA was isolated using the RNeasy kit (QIAGEN, Hilden, Germany) according to the manufacturer’s instructions. cDNA was synthesized with the Tetro cDNA Synthesis Kit (Meridian Bioscience, Memphis, TN, USA) following the manufacturer’s protocol. Quantitative PCR was performed using Luna Universal qPCR Master Mix, SYBR (New England Biolabs, Ipswich, MA, USA). Target genes included IL6, ISG15, IFNB1, NQO1, HMOX1 (HO-1), GCLM, DDIT3 (CHOP), ATF4, and XBP1; primer sequences are listed in Table S3. ACTB served as the internal control. Expression changes were calculated as −ΔΔCt (log2 fold change) relative to time-matched calibrators (OC43 only for infected comparisons; DMSO for uninfected). Each condition included n = 3 biological replicates. At each time point, data were analyzed independently in GraphPad Prism 10.1.2 (GraphPad Software, San Diego, CA, USA) using an ordinary two-way ANOVA with factors gene (9 levels) and treatment (2 levels). Significance marks reflect within-gene simple-effects comparisons (treatment) with Tukey’s multiple-comparisons adjustment (two-tailed, α = 0.05). Time was not included as a factor; no inferences were made across time points.

## COc1cccc(-c2oc(-c3ccc(C(F)(F)F)cc3)nc2C(=O)NCC2CC2)c1 [KB-2777, N-(cyclopropylmethyl)-5-(3-methoxyphenyl)-2-(4-(trifluoromethyl)phenyl)Oxazole-4-Carboxamide]
HCoV-OC43 [1]
  EC50: 1830 nM
PEDV
  EC50: 1590 nM
HCoV-NL63 [2]; HCoV-NL63, 48 h, post-treatment, 12.5 µM and 25 µM, p < 0.0001, n = 3
  infectious titer (TCID50) vs virus control: decreased; also recorded: significant reductions
HCoV-NL63 [2]; HCoV-NL63, 48 h post-infection, full/pre/co/post
  infectious titers (log10[TCID50/mL]) across TOA regimens: decreased in a regimen-dependent manner, largest with full exposure, smaller with pre- and post-treatment, and minimal with co-treatment
HCoV-NL63 [3]
  CPE-based cell protection across TOA regimens: reproduced this pattern
HCoV-OC43 [4]
  CPE reduction across TOA regimens: greatest antiviral effect with full exposure, intermediate activity with pre- and post-treatment, and little or no effect with co-treatment
[5]; OC43-infected MRC-5, OC43 + KB-2777 vs OC43 alone, time-matched
  host-response transcripts (−ΔΔCt) in infected cells: attenuated IL6, IFNB1, ISG15, and selected UPR transcripts; also recorded: attenuated these transcriptional responses
[5]; uninfected MRC-5, KB-2777 alone vs DMSO
  host-response transcripts (−ΔΔCt) in uninfected cells: changes were limited and transient
